5 molecules from article PMC11729419, “Thiol-Reactive or Redox-Active: Revising a Repurposing Screen Led to a New Invalidation Pipeline and Identified a True Noncovalent Inhibitor Against Papain-like Protease from SARS-CoV-2” (ACS Pharmacology & Translational Science, 2024) can be followed below.

Where two headings read alike, the source gives them in different places.

Assay [1] deals with SARS-CoV-2 BetaCoV/Belgium/GHB-03021/2020 strain. The class given is cell-based. The following applies: 300 μM, 2 μM CP-100356.
Another assay has as its target SARS-CoV-2 Mpro (Severe acute respiratory syndrome coronavirus 2, UniProt P0DTD1). The class given is biochemical. The following applies: 10 μM; 1 mM DTT.
For assay [2] the following is noted: Table S1, 20 µM, DTT buffer.
A further assay addresses SARS-CoV-2 PLpro (Severe acute respiratory syndrome coronavirus 2, UniProt P0DTD1). The class given is biochemical. Particulars: dose-response, ISG15 substrate.
In the next assay the target is SARS-CoV-2 PLpro-NAB (Severe acute respiratory syndrome coronavirus 2, UniProt P0DTD1). Put plainly: biochemical. Particulars: for Inhibition in L-cysteine buffer versus DTT buffer (dose-response): 1 mM L-cysteine vs 1 mM DTT; for Inhibitory activity on retest in 1 mM L-cysteine: 50% inhibition at 20 μM.
The test system of a further assay is USP14, USP7, cathepsin-L. It is filed as biochemical, human. The following applies: 10 μM; 1 mM DTT.

Experimental for USP14, USP7, cathepsin-L: The assay was performed according to the manufacturer protocol, adapted to 384-well format with a final volume of 10 μL. […] 5 μL of cathepsin-L was added and incubated for 30 min at 25 °C. The enzymatic reaction was initiated by adding 5 μL substrate. […] Final assay concentrations of cathepsin-L and substrate were 0.01 ng/μL and 5 μM, respectively.
Plates were sealed and incubated for 30 min at 25 °C, followed by adding 5 μL/0.5 μM Ubiquitin-AMC (R&D Systems #U-550-050) substrate. The fluorescence signal was measured after 30 min of incubation (Ex/Em = 340/460; EnVision, PerkinElmer). […] The assay buffer is 50 mM Tris, 150 mM NaCl, 1 mM DTT, and 0.01% Tween 20 (pH 7.5).

For `CCS(=O)(=O)N1CCC([C@@H](C)n2c(C)c(C(=O)NCc3c(OC)cc(C)[nH]c3=O)c3ccccc32)CC1` [CPI-169], the “Spike RNA copy number” value in assay [1] is “reduced the Spike RNA copy number significantly”. Besides, at SARS-CoV-2 Mpro, the “Preference PLpro over Mpro” value was “preferential inhibition of PLpro over Mpro”. Moreover, the “Interference inhibition [%] 20 µM based on product interference DTT BUFFER” value (shortened to “Interference inhibition [%] 20 µM based”) in assay [2] (listed as CPI-169 (EOS)) is 9.34%; in assay [2] (listed as CPI-169 (FhG)) it was -0.73%.
In the case of `O=c1cc(-c2cc(O)c(O)c(O)c2)oc2cc(O)c(O)c(O)c12` [DOM_SIM_710, 3′,4’,5′,5,6,7-hexahydroxyflavone], the “Potency against PLpro compared with PLpro-NAB” value on SARS-CoV-2 PLpro is recorded as “higher potency against PLpro compared with PLpro-NAB”. Moreover, the “Preference PLpro over Mpro” value on SARS-CoV-2 Mpro is given as “preferential inhibition of PLpro over Mpro”. The “Interference inhibition [%] 20 µM based” value in assay [2] is on record as 10.43%. Also, at SARS-CoV-2 PLpro-NAB, the “Inhibition in L-cysteine buffer versus DTT buffer (dose-response)” value is recorded as “increased inhibition” and the “Inhibitory activity on retest in 1 mM L-cysteine” value (shortened to “Inhibitory activity on retest”) is “retained their inhibitory activity”. Further, the inhibition (as a rule, the relative decrease from the control value, in per cent) at 20 µM on SARS-CoV-2 PLpro-NAB (hit confirmation, 20 μM, 1 mM DTT buffer, average (SD), 20 μM PR619 = 100%, DMSO = 0%, read-out: HC PLpro-NAB inhibition [%] 20 μM triplicates 1 mM DTT buffer) worked out at 65%. Besides, the inhibition at 20 µM on SARS-CoV-2 PLpro-NAB (hit profiling, 20 μM, 1 mM L-cys buffer, average (SD), 20 μM PR619 = 100%, read-out: HP PLpro-NAB inhibition [%] 20 μM triplicates 1 mM L-cys buffer) turned out to be 155%. Further, on SARS-CoV-2 PLpro-NAB (hit profiling, 1 mM DTT buffer), the 50% inhibitory concentration (IC50) (as a rule, the concentration that inhibits the measured activity by half) is above 20 µM.
Regarding `O=c1c(O)cccc2cc(O)c(O)c(O)c12` [purpurogallin], the “Potency against PLpro compared with PLpro-NAB” value on SARS-CoV-2 PLpro was “higher potency against PLpro compared with PLpro-NAB”. Moreover, the “Preference PLpro over Mpro” value at SARS-CoV-2 Mpro is recorded as “preferential inhibition of PLpro over Mpro”. The “Interference inhibition [%] 20 µM based” value in assay [2] is 12.84%. Also, on SARS-CoV-2 PLpro-NAB, the “Inhibition in L-cysteine buffer versus DTT buffer (dose-response)” value is “increased inhibition” and the “Inhibitory activity on retest” value is “retained their inhibitory activity”. At SARS-CoV-2 PLpro-NAB (read-out: HC PLpro-NAB inhibition [%] 20 μM triplicates 1 mM DTT buffer), the inhibition at 20 µM stood at 62.8%. Moreover, on SARS-CoV-2 PLpro-NAB (read-out: HP PLpro-NAB inhibition [%] 20 μM triplicates 1 mM L-cys buffer), the inhibition at 20 µM came to 101%.
On to `C/C(=N\NC(=N)N)c1cc(NC(=O)CCCCCCCCC(=O)Nc2cc(/C(C)=N/NC(=N)N)cc(/C(C)=N/NC(=N)N)c2)cc(/C(C)=N/NC(=N)N)c1` [semapimod], for which the “Potency against PLpro compared with PLpro-NAB” value on SARS-CoV-2 PLpro was “activity exclusively against PLpro-NAB”. The “Preference PLpro over Mpro” value on SARS-CoV-2 Mpro is “preferential inhibition of PLpro over Mpro”. Moreover, the “Interference inhibition [%] 20 µM based” value in assay [2] (listed as Semapimod (EOS)) is given as 9.91%; in assay [2] (listed as Semapimod (FhG)) it was -5.72%. Further, the “Selectivity versus human USP14, USP7, cathepsin-L” value with USP14, USP7, cathepsin-L is “active across all of the tested targets”. Also, on SARS-CoV-2 PLpro-NAB, the “Inhibition in L-cysteine buffer versus DTT buffer (dose-response)” value is “did not show variations in inhibition potency or thermal stability”. Also, the “Inhibitory activity on retest” value on SARS-CoV-2 PLpro-NAB was “retained their inhibitory activity”. Besides, the “HC PLpro-NAB inhibition [%] 20 μM triplicates 1 mM DTT buffer” value is on record as 140.16 (2.99) % on SARS-CoV-2 PLpro-NAB (hit confirmation, 20 μM, 1 mM DTT buffer, average (SD), 20 μM PR619 = 100%, DMSO = 0%, listed as semapimod (EOS)) and 118.80 (3.35) % on SARS-CoV-2 PLpro-NAB (hit confirmation, 20 μM, 1 mM DTT buffer, average (SD), 20 μM PR619 = 100%, DMSO = 0%, listed as semapimod (FhG)). Besides, the “HP PLpro-NAB inhibition [%] 20 μM triplicates 1 mM L-cys buffer” value on SARS-CoV-2 PLpro-NAB (hit profiling, 20 μM, 1 mM L-cys buffer, average (SD), 20 μM PR619 = 100%, listed as semapimod (EOS)) is 50.46 (6.98) %; on SARS-CoV-2 PLpro-NAB (hit profiling, 20 μM, 1 mM L-cys buffer, average (SD), 20 μM PR619 = 100%, listed as semapimod (FhG)), 51.28 (5.64) %. Further, the IC50 is above 20 µM on SARS-CoV-2 PLpro-NAB (read-out: HP PLpro-NAB IC50 [μM] duplicates 1 mM L-cys buffer, hit profiling, 1 mM L-cys buffer, listed as semapimod (EOS)); 14.4 µM on SARS-CoV-2 PLpro-NAB (read-out: HP PLpro-NAB IC50 [μM] duplicates 1 mM L-cys buffer, hit profiling, 1 mM L-cys buffer, listed as semapimod (FhG)); 1.21 µM on SARS-CoV-2 PLpro-NAB (read-out: HP PLpro-NAB IC50 [μM] triplicates 1 mM DTT buffer, hit profiling, 1 mM DTT buffer, listed as semapimod (EOS)); 5.23 µM at SARS-CoV-2 PLpro-NAB (read-out: HP PLpro-NAB IC50 [μM] triplicates 1 mM DTT buffer, hit profiling, 1 mM DTT buffer, listed as semapimod (FhG)).
On to `O=C(O)c1cc(O)c2c(c1)[C@H]([C@H]1c3cc(C(=O)O)cc(O)c3C(=O)c3c(O[C@@H]4O[C@H](CO)[C@@H](O)[C@H](O)[C@H]4O)cccc31)c1cccc(O[C@@H]3O[C@H](CO)[C@@H](O)[C@H](O)[C@H]3O)c1C2=O` [sennoside A], for which, on SARS-CoV-2 Mpro, the “Inhibition of Mpro” value is recorded as “inhibition of both proteases from SARS-CoV-2”. For the same molecule, the “Interference inhibition [%] 20 µM based” value in assay [2] was 1.69%. At SARS-CoV-2 PLpro-NAB, the “Inhibition in L-cysteine buffer versus DTT buffer (dose-response)” value is “lost its inhibitory potency” and the “Inhibitory activity on retest” value was “retained their inhibitory activity”.
